Results taken from patent US11584744B2 (UNIVERSITY OF WASHINGTON, priority 2017, dated 2023).
Converted amounts (≈) assume the structure as drawn. “And” between values parts separate entries of the source, which are not always exact repeats. Identical values can stand only once. Like-named read-outs stand apart in the source and are kept apart here.

How the values were obtained:
[1] = molecular target: T1, MetRS (T. brucei) (Trypanosoma brucei brucei, UniProt Q38C91); test: MetRS (T. brucei) enzyme inhibition; assay type: biochemical
T1 sequence (Q38C91 1-773): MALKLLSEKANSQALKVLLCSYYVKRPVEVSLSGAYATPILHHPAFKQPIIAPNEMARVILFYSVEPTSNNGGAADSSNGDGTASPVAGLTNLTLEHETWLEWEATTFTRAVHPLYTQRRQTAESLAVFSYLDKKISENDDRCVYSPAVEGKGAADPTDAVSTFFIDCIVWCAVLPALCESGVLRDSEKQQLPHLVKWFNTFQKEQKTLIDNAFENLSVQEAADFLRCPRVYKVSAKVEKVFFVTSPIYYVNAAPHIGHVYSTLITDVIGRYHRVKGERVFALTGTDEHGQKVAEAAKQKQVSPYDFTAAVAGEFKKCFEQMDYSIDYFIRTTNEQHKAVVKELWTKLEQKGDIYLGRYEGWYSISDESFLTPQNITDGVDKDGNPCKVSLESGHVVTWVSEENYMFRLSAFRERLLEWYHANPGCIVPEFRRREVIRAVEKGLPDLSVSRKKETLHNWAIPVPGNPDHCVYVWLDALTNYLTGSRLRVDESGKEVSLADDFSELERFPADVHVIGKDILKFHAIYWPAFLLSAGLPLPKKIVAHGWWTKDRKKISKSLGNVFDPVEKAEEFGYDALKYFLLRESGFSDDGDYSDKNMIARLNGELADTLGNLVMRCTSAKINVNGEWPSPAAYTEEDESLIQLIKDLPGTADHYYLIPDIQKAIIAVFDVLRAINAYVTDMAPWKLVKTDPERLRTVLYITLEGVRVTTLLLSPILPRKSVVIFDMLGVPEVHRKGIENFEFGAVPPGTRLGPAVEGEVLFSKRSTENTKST

[2] = tested on: C. parvum; test: C. parvum growth inhibition; assay type: cell-based, Cryptosporidium parvum; conditions: read-out: (J) C. parvum EC50
[3] = tested on: T. cruzi; test: T. cruzi growth inhibition; assay type: cell-based, Trypanosoma cruzi; conditions: read-out: (E) T. cruzi EC50
[4] = tested on: S. aureus MSSA (ATCC 29213); test: MIC susceptibility testing; assay type: cell-based, Staphylococcus aureus; conditions: Staphylococcus aureus, S. aureus ATCC 29213; read-out: (F) S. aureus (ATCC 29213) MIC
Text: (§1) Media and culture conditions. Mueller Hinton broth (MHB), cation adjusted Mueller Hinton broth (CA-MHB), and Brain Heart Infusion broth (BHI) were purchased from Becton Dickinson (Franklin Lakes, N.J.). Tryptic soy agar (TSA) plates, TSA with 5% sheep blood plates, and CA-MHB with 3% laked horse blood were purchased from Remel (San Diego, Calif.). MHB was used to assay all Staphylococcus aureus strains. CA-MHB was used for Staphylococcus epidermidis, Enterococcus faecalis, Enterococcus faecium, Escherichia coli, and Pseudomonas aeruginosa. CA-MHB supplemented with 3% laked horse blood was used for Streptococcus pneumoniae and Streptococcus pyogenes. Staphylococcus, Enterococcus, Escherichia, and Pseudomonas strains were cultured at 37° C. with ambient air. Streptococcus strains were cultured in 37° C. with 5% CO2. Separate conditions for radiolabeled precursor uptake assays are described below.
(§2) Susceptibility testing: Minimum inhibitory concentration (MIC) determinations were performed in triplicate in 96-well round bottom microtiter plates (Corning, Corning N.Y.) as described by the Clinical and Laboratory Standards Institute (CLSI). Serial two-fold dilutions of compounds were added to plates in 50 μL volumes. An additional 50 μL of media containing bacterial cells (1×10^6 CFUs/mL) was then added to each well. Maximum DMSO concentrations were 0.5%. Plates were incubated at 37° C. for at least 18 h before reading the susceptibility result by optical absorbance (OD600) using a BioTek ELx800. The lowest concentration causing ≥90% growth inhibition compared to the untreated control was recorded as the MIC (and also corresponded to the visual MIC). MICs were measured at least twice and the higher value (if different) was recorded herein.

[5] = molecular target: MetRS (C. parvum) (Cryptosporidium parvum, UniProt Q5CVN0); test: MetRS (C. parvum) enzyme inhibition; assay type: biochemical
[6] = tested on: T. brucei; test: T. brucei growth inhibition; assay type: cell-based, Trypanosoma brucei; conditions: read-out: (D) T. brucei EC50
[7] = tested on: S. aureus MRSA (ATCC 33591); test: MIC susceptibility testing; assay type: cell-based, Staphylococcus aureus; conditions: Staphylococcus aureus, MRSA ATCC33591; read-out: (G) MRSA (ATCC33591) MIC
Text: as §1, §2

[8] = read-out: (C) MetRS (C. parvum) IC50

Sequence of MetRS (C. parvum) (Q5CVN0 entry or part of it): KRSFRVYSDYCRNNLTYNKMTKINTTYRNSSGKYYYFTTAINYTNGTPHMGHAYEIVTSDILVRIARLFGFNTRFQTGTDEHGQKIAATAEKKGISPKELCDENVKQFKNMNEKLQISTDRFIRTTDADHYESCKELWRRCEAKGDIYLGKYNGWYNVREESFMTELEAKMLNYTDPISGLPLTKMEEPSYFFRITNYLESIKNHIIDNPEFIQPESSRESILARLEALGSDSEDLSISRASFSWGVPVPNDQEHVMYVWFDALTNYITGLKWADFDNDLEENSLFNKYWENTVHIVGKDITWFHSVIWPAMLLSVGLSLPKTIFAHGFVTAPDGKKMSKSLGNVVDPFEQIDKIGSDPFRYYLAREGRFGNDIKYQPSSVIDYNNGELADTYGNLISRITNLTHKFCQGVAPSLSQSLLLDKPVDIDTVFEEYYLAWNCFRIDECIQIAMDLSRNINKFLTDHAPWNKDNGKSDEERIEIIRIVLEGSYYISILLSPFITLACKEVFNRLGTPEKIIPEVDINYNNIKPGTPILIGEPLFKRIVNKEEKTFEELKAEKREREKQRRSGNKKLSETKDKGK

Row | SMILES | IC50 [1] | EC50 ([2]; Cryptosporidium parvum) [µM] | EC50 ([3]; Trypanosoma cruzi) [µM] | MIC [4] [mg/L] | IC50 [5, 8] [µM] | EC50 [2] [µM] | EC50 ([6]; Trypanosoma brucei) [µM] | EC50 [6] [µM] | MIC [7] [mg/L] | EC50 [3] [µM] | IC50 [5] [µM]
1 | COc1ccc(-c2cnn3c2CN(Cc2nc4nc(F)ccc4[nH]2)CC3)c(Cl)c1 [Compound 2170, 2-((3-(2-chloro-4-methoxyphenyl)-6,7-dihydropyrazolo[1,5-a]pyrazin-5(4H)-yl)methyl)-5-fluoro-1H-imidazo[4,5-b]pyridine] | < 0.04 µM | 1.78 | 1.33 |  | < 0.04 |  | 0.0645 |  |  |  | 
2 | COc1ccc(-c2ccc(N)c3nc(Cc4nc5nc(Cl)ccc5[nH]4)cn23)c(Cl)c1 [Compound 2171, 2-({5-chloro-1H-imidazo[4,5-b]pyridin-2-yl}methyl)-5-(2-chloro-4-methoxyphenyl)imidazo[1,2-a]pyridin-8-amine] | < 0.04 µM |  | 0.302 | 1.16 (≈ 2.64 µM) | 0.0753 |  | 0.029 |  | 1.87 (≈ 4.26 µM) |  | 
3 | COc1ccc(-c2ccc(NC(C)=O)c3nc(Cc4nc5nc(F)ccc5[nH]4)cn23)c(Cl)c1 [Compound 2183, N-[5-(2-chloro-4-methoxyphenyl)-2-({5-fluoro-1H-imidazo[4,5-b]pyridin-2-yl}methyl)imidazo[1,2-a]pyridin-8-yl]acetamide] | < 0.04 µM | 0.629 | 0.116 | 0.245 (≈ 0.527 µM) | < 0.04 |  |  |  |  |  | 
4 | Clc1ccc(Cc2cn(Cc3nc4cc(Cl)ccc4[nH]3)cn2)c(Cl)c1 [Compound 2192, 6-chlor0-2-({4-[(2,4-dichlorophenyl)-methyl]-1H-imidazol-1-yl}methyl)-1H-1,3-benzodiazole] | < 0.04 µM | > 2 | 0.516 |  |  |  | 0.0852 |  |  |  | 0.114
5 | COc1ccc(Cc2cn(Cc3nc4nc(Cl)ccc4[nH]3)c(=O)n2CC(C)(C)NC(C)=O)c(Cl)c1 [Compound 2209, N-{1-[3-({5-chloro-1H-imidazo[4,5-b]pyridin-2-yl}methyl)-5-[(2-chloro-4-methoxyphenyl)methyl]-2-oxo-2,3-dihydro-1H-imidazol-1-yl]-2-methylpropan-2-yl}acetamide] | 0.38 µM and 0.781 µM | > 2 | 4.62 |  |  |  |  |  |  |  | 
6 | O=C(O)Cn1c(C(=O)c2ccc(Cl)cc2Cl)cn(Cc2nc3ccc(Cl)nc3[nH]2)c1=O [Compound 2216, 2-[3-({5-chloro-1H-imidazo[4,5-b]pyridin-2-yl}methyl)-5-(2,4-dichlorobenzoyl)-2-oxo-2,3-dihydro-1H-imidazol-1-yl]acetic acid] | < 0.04 µM | > 2 | > 5 |  | 0.0532 |  | 0.287 |  |  |  | 
7 | COc1ccc(-c2cccc3c2CN(Cc2nc4nc(C(F)(F)F)nc(N)c4[nH]2)C3=O)c(Cl)c1 [Compound 2252, 2-((6-amin0-2-(trifluoromethyl)-7H-purin-8-yl)methyl)-4-(2-chloro-4-methoxyphenyl)isoindolin-1-one] |  |  | 0.63 |  | 0.431 |  | 0.268 |  | > 2 |  | 
8 | COc1ccc(-c2nccn3c(=O)n(Cc4nc5c(Cl)c(Cl)ccc5[nH]4)cc23)c(Cl)c1 [Compound 2254, 8-(2-chloro-4-methoxyphenyl)-2-[(6,7-dichloro-1H-1,3-benzodiazol-2-yl)methyl]-2H,3H-imidazo[1,5-a]pyrazin-3-one] |  |  |  |  | 0.138 |  | 0.168 |  | > 2 |  | 
9 | COc1ccc(Cc2cn(Cc3nc4nc(Br)ccc4[nH]3)c(=O)n2CC(F)F)c(Cl)c1 [Compound 2257, 1-({5-bromo-1H-imidazo[4,5-b]pyridin-2-yl}methyl)-4-[(2-chloro-4-methoxyphenyl)methyl]-3-(2,2-difluoroethyl)-2,3-dihydro-1H-imidazol-2-one] |  | 0.31 | 0.00803 |  |  | 0.219 |  |  | 0.876 (≈ 1.71 µM) | 0.00817 | 

Second part, led by results:

Row | IC50 [1] | EC50 ([2]; Cryptosporidium parvum) [µM] | EC50 ([3]; Trypanosoma cruzi) [µM] | MIC [4] [mg/L] | IC50 [5, 8] [µM] | EC50 [2] [µM] | EC50 ([6]; Trypanosoma brucei) [µM] | EC50 [6] [µM] | MIC [7] [mg/L] | EC50 [3] [µM] | SMILES | IC50 [5] [µM]
10 | < 0.04 µM | > 2 | 0.526 | > 2.5 | < 0.04 |  |  |  |  |  | O=c1n(Cc2nc3ccc(F)nc3[nH]2)cc(Cc2ccc(Cl)cc2Cl)n1C1CCCCC1 [Compound 2071, 3-cyclohexyl-4-[(2,4-dichlorophenyl)methyl]-1-({5-fluoro-1H-imidazo[4,5-b]pyridin-2-yl}methyl)-2,3-dihydro-1H-imidazol-2-one] | 
11 | < 0.04 µM | 0.834 | 0.514 | 1.71 (≈ 3.97 µM) | < 0.04 | 0.683 | 0.00456 | 0.00903 |  |  | C#CCn1c(Cc2ccc(Cl)cc2Cl)cn(Cc2nc3ccc(F)nc3[nH]2)c1=O [Compound 2085, 4-[(2,4-dichlorophenyl)methyl]-1-({5-fluoro-1H-imidazo[4,5-b]pyridin-2-yl}methyl)-3-(prop-2-yn-1-yl)-2,3-dihydro-1H-imidazol-2-one] | 
12 | < 0.04 µM |  | 0.552 | 0.964 (≈ 2.21 µM) | 0.0412 |  | 0.00594 | 0.00764 | > 2.5 |  | O=c1n(Cc2nc3nc(F)ccc3[nH]2)cc(Cc2ccc(Cl)cc2Cl)n1CCO [Compound 2086, 4-[(2,4-dichlorophenyl)-methyl]-1-({5-fluoro-1H-imidazo[4,5-b]pyridin-2-yl}methyl)-3-(2-hydroxyethyl)-2,3-dihydro-1H-imidazol-2-one] | 
13 | < 0.04 µM | > 2 | 0.367 | > 2.5 | 0.0745 |  | 0.00373 |  |  |  | NCCn1c(Cc2ccc(Cl)cc2Cl)cn(Cc2nc3ccc(Cl)nc3[nH]2)c1=O [Compound 2214, 3-(2-aminoethyl)-1-((5-chloro-3H-imidazo[4,5-b]pyridin-2-yl)methyl)-4-(2,4-dichlorobenzyl)-1,3-dihydro-2H-imidazol-2-one] | 
14 |  | 1.5 | 0.126 | 0.557 (≈ 1.27 µM) |  |  | 0.0189 | 0.0256 |  |  | CCn1c(Cc2ccc(Cl)cc2Cl)cn(Cc2nc3ccc(F)c(F)c3[nH]2)c1=O [Compound 2262, 4-[(2,4-dichlorophenyl)methyl]-1-[(6,7-difluoro-1H-1,3-benzodiazol-2-yl)methyl]-3-ethyl-2,3-dihydro-1H-imidazol-2-one] | 
15 |  | > 2 | 0.366 | 3.29 (≈ 6.95 µM) |  |  | 0.0644 | 0.0691 |  |  | O=c1n(Cc2nc3c(F)c(F)ccc3[nH]2)cc(Cc2ccc(Cl)cc2Cl)n1CC(F)F [Compound 2263, 4-[(2,4-dichlorophenyl)methyl]-1-[(6,7-difluoro-1H-1,3-benzodiazol-2-yl)methyl]-3-(2,2-difluoroethyl)-2,3-dihydro-1H-imidazol-2-one] | 
16 |  | > 2 | 0.133 | 1.22 (≈ 2.25 µM) |  |  | 0.0399 | 0.0731 |  |  | O=c1n(Cc2nc3c(F)c(F)ccc3[nH]2)cc(Cc2ccc(Cl)cc2Cl)n1CC1CCNCC1(F)F (stereo not shown) [Compound 2264, 5-(2,4-dichlorobenzyl)-3-((4,5-difluoro-1H-benzo[d]imidazol-2-yl)methyl)-1-((3,3-difluoropiperidin-4-yl)methyl)-1H-imidazol-2(3H)-one] | 
